pIC50: −log10 of the molar value.

The subject of one series is pSmad. The series can be described thus: Inhibitory activity assay on Smad phosphorylation (HEK-Blue-TGFβ cells, Quanti-Blue readout). The settings on record: TGFβ stimulation, 24 hours, read-out: pSmad inhibition IC50. The series is classed as cell-based. On the procedure:
Experimental Embodiment 1: Inhibitory Activity Assay on Smad Phosphorylation
Both HEK-Blue-TGFβ cells and Quanti-Blue reagent were purchased from Invivogen Company. TGFβ was purchased from PeproTech.
The compounds to be tested were diluted 5 times with a row gun to the 8th concentration, that is, diluted from 1 mmol/L to 12.8 nmol/L, the final concentration of dimethyl sulfoxide was 100%, and a double hole experiment was set up. 2 μL of inhibitors of each concentration gradient, 18 μL of TGFβ (20 ng/mL), and 180 μL of cell suspension (140,000 cells/mL) were added to the microplate. At this time, the final concentration gradient of the compound was […] diluted to 0.13 nmol/L. The cell plate was placed at 37° C. in a 5% CO2 incubator for 24 hours. After the reaction was completed, 40 μL of cell culture supernatant was taken out from each well to a new transparent microtiter plate, 160 μL of Quanti-Blue reagent was added to each well, and then the reaction was carried out at 37° C. for 60 minutes. After the reaction was completed, the PerkinElmer Envision multi-label analyzer was used to read the absorption light at 630 nm.
The original data was converted into the inhibition rate, and the IC50 value can be obtained by curve fitting with four parameters.

The nature of series [1]: Pharmacokinetics study of cassette drug administration in vivo. More on the design: species or system CD-1 male mice. The settings on record: male, mouse, plasma, CD-1 mice; for Vd: read-out: Vdss; for bioavailability: oral (1.5 mg/kg) vs injection (1 mg/kg), read-out: F (bioavailability). As to the method: Experimental Embodiment 2: Pharmacokinetics Study of Cassette Drug Administration in Vivo
The purpose of this experiment is to evaluate the pharmacokinetic behavior of the compound after a single intravenous injection and intragastric administration, and to investigate the bioavailability after intragastric administration.
CD-1 male mice aged from 7 to 10 weeks were selected, and the doses for intravenous and oral administration were 1 mg/kg and 1.5 mg/kg, respectively. The mice were fasted for at least 12 hours before the administration, and resumed feeding 4 hours after the administration. The mice were free to drink during the entire experiment.
(§1) On the day of the experiment, animals in the intravenous group were given a single injection of the corresponding compound through the tail vein with a volume of 5 mL/kg; the oral group was given the corresponding compound by a single gavage with a volume of 5 mL/kg. The animals were weighed before administration, and the administration volume was calculated according to the body weight. Sample collection time: 0.083 hours, 0.25 hours, 0.5 hours, 1 hour, 2 hours, 4 hours, 8 hours, 24 hours in the injection group; 0.25 hours, 0.5 hours, 1 hour, 2 hours, 4 hours, 6 hours, 8 hours, 24 hours in the gavage group. Approximately 30 μL of whole blood was collected through the saphenous vein at each time point to prepare plasma for high-performance liquid chromatography-tandem mass spectrometry (LC-MS/MS) for concentration determination. All animals were euthanized by CO2 anesthesia after collecting PK samples at the last time point. The non-compartmental model of WinNonlin™ Version 6.3 (Pharsight, Mountain View, CA) pharmacokinetic software was used to process the plasma concentration, and the pharmacokinetic parameters were calculated using the linear and logarithmic trapezoidal method.

For series [2], the system named is mouse colon cancer CT-26 cells. The series can be described thus: Anti-tumor drug efficacy study, mouse colon cancer CT-26 cell BALB/c mouse subcutaneous allograft tumor model. In kind it is in vivo, BALB/c mice. The settings on record: 50 mg/kg, twice a day, oral. As to the method:
(§2) Experimental Embodiment 3: Anti-Tumor Drug Efficacy Study of Mouse Colon Cancer CT-26 Cell BALB/c Mouse Subcutaneous Allograft Tumor Model In Vivo
The main purpose of this study is to study the anti-tumor drug efficacy of the tested compounds on the CT26 mouse allograft tumor model.
(§3) Cell culture: mouse colon cancer CT-26 cells were cultured in monolayer in vitro, and the culture conditions were RPMI-1640 medium with 10% fetal bovine serum, 37° C. and 5% carbon dioxide incubator. Trypsin-ethylenediaminetetraacetic acid (EDTA) was used for routine digestion and passage twice a week. When the cell saturation was 80%-90% and the number reached the requirement, the cells were collected, counted, and inoculated.
(§4) Animals: BALB/c mice, female, 6-8 weeks old.
(§5) Tumor inoculation: 0.1 mL of DPBS cell suspension containing 3×10^5 CT26 cells was subcutaneously inoculated into the right groin of each mouse, and administration was started on the day of inoculation.
Experimental index: The experimental index was to investigate whether the tumor growth was inhibited, delayed or cured. The tumor diameter was measured with a vernier caliper twice a week. The calculation formula for tumor volume is: V=0.5 L×W^2, where L and W refer to the long diameter and short diameter of the tumor, respectively.

Series [3] is described as follows: Drug concentration in tumor tissue and plasma AUC in the CT26 tumor model study. The settings on record: 50 mg/kg, twice a day, oral; for AUC: female, BALB/c, mouse, plasma. The series is classed as in vivo, BALB/c mice. On the procedure:
as §2, §3, §4, §5

Series [4] in a line: Pharmacokinetic studies in vivo (single compound). Also on record: species or system CD-1 male mice. The following applies: CD-1 mice; for AUC(0-t) / clearance / half-life / Vd / Cmax / Tmax: male, mouse, plasma; for Vd: read-out: Vdss. On the procedure:
Experiment 4: Pharmacokinetic Studies In Vivo
The purpose of this experiment is to evaluate the pharmacokinetic behavior of the compounds after a single intravenous injection and intragastric administration, and to investigate the bioavailability after intragastric administration.
[…] The mice were fasted for at least 12 hours before the administration, and resumed feeding 4 hours after the administration. The mice were free to drink during the entire experiment.
as §1, with “volume of 10 mL/kg. The” for “volume of 5 mL/kg. The”, “the injection group, 0.25 hours,” for “the injection group; 0.25 hours,”

With `Cc1cccc(-n2nc(C)cc2Oc2ccnc(Nc3cccc(C(N)=O)c3)c2)c1` [Compound 1], the pIC50 (in general, the IC50 on a negative log10 scale, so that one unit is a factor of ten) in the series with pSmad is 7.18.

`Cc1cccc(-n2nccc2Oc2ccnc(Nc3cccc(C(N)=O)c3)c2)n1` [Compound 2]: the pIC50 with pSmad was 6.61.

Consider `Cc1cccc(-n2nc3c(c2Oc2ccnc(Nc4cccc(C(N)=O)c4)c2)CCCC3)n1` [Compound 3], for which, in the series with pSmad, the pIC50 was 7.27.

For `CCc1cc(Oc2ccnc(Nc3cccc(C(N)=O)c3)c2)n(-c2cccc(C)n2)n1` [Compound 4], the pIC50 in the series on pSmad was 7.27.

Consider `Cc1cccc(-n2nc(C)cc2Oc2ccnc(Nc3cnn(CC(C)(C)O)c3)c2)n1` [Compound 5], for which the pIC50 in the series with pSmad was 6.36.

Take `Cc1cccc(-n2nc(C)cc2Oc2ccnc(Nc3cccc(C(N)=O)c3)c2)n1` [Compound 6]: the pIC50 in the series on pSmad is 7.10. For the same molecule, in series [1] (iv, injection (1 mg/kg)), the AUC(0-t) (usually the area under the concentration-time curve up to a stated or last time point) was 1.81 µM·h, the clearance (usually the rate of elimination divided by the concentration) is 24.9 mL/min/kg, the half-life (usually how long it takes for the measured level to halve) was 1.32 h and the Vd came to 1.05 L/kg. The bioavailability (usually dose-corrected exposure relative to a reference, in per cent) in series [1] came out at 54.6%. In addition, in series [1] (oral (1.5 mg/kg)), the AUC(0-t) is 1.45 µM·h; the Cmax – broadly, the peak of the concentration-time curve – was 804 nM; the Tmax (commonly the time from dosing to the highest level) stood at 0.25 h; the half-life is 2.84 h. In series [2], the “% Inhibitory rate on Day 29” value came to 73% and the “Mean tumor volume Day 29” value is on record as 601.7 mm^3.

As to `Cc1cccc(-n2nc(C)cc2Oc2ccnc(Nc3cnn(CC(C)C)c3)c2)n1` [Compound 7], the pIC50 in the series with pSmad was 6.45.

Regarding `Cc1cccc(-n2nc(C)cc2Oc2ccnc(Nc3cnccn3)c2)n1` [Compound 8], the pIC50 in the series on pSmad was 6.17.

As for `Cc1cccc(-n2nc(C)cc2Oc2ccnc(Nc3ccnc(C(C)(C)O)c3)c2)n1` [Compound 9], the pIC50 in the series with pSmad is 6.57.

On to `Cc1cccc(-n2nc(C)cc2Oc2ccnc(Nc3cnn(CCO)c3)c2)n1` [Compound 10], for which the pIC50 with pSmad was 6.45.

Consider `Cc1cccc(-n2nc(C)cc2Oc2ccnc(Nc3ccn(CC(C)(C)O)n3)c2)n1` [Compound 11], for which the pIC50 in the series on pSmad is 6.72.

In the case of `COc1cccc(-n2nc(C)cc2Oc2ccnc(Nc3cccc(C(N)=O)c3)c2)n1` [Compound 12], the pIC50 in the series on pSmad is 6.36.

As for `Cc1cccc(-n2nc3c(c2Oc2ccnc(Nc4cccc(C(N)=O)c4)c2)CCC3)n1` [Compound 13], the pIC50 in the series with pSmad was 7.22.

For the molecule `Cc1cc(Oc2ccnc(Nc3cccc(C(N)=O)c3)c2)n(C2CCOCC2)n1` [Compound 14], the pIC50 in the series with pSmad was 6.47. In addition, in series [1] (iv, injection (1 mg/kg)), the AUC(0-t) was found to be 1.06 µM·h, the clearance came to 37 mL/min/kg, the half-life is 1.37 h and the Vd stood at 2.39 L/kg. For the same molecule, the bioavailability in series [1] worked out at 75.9%. Moreover, in series [1] (oral (1.5 mg/kg)), the AUC(0-t) amounted to 1.16 µM·h, the highest level (Cmax) was 567 nM, the Tmax is 0.25 h and the half-life is 1.61 h. Moreover, in series [2], the “% Inhibitory rate on Day 29” value came to 81% and the “Mean tumor volume Day 29” value was 424.78 mm^3. In addition, in series [3], the “Drug concentration in tumor tissue 1 hour after administration” value turned out to be 11318 nmol/kg; the “Drug concentration in tumor tissue 12 hours after administration” value turned out to be 820 nmol/kg; the AUC – broadly, concentration integrated over time – stood at 30.1 µM·h. Moreover, in series [4] (iv, injection, 1 mg/kg), the AUC(0-t) was found to be 1.34 µM·h, the clearance was 31.5 mL/min/kg, the half-life is 1.17 h and the Vd turned out to be 1.64 L/kg. In series [4] (oral, 2.5 mg/kg), the AUC(0-t) is 2.7 µM·h, the Cmax is 1560 nM, the Tmax came out at 0.5 h and the half-life was 1.15 h. For the same molecule, in series [4] (oral 2.5 mg/kg vs injection 1 mg/kg), the F worked out at 80.9%.

For the molecule `Cc1nn(C2CCOCC2)c(Oc2ccnc(Nc3cccc(C(N)=O)c3)c2)c1C` [Compound 15], the pIC50 with pSmad was 6.38.

As to `NC(=O)c1cccc(Nc2cc(Oc3c4c(nn3C3CCOCC3)CCC4)ccn2)c1` [Compound 16], the pIC50 in the series on pSmad is 6.78.

For the molecule `NC(=O)c1cccc(Nc2cc(Oc3c4c(nn3C3CCOCC3)CCCC4)ccn2)c1` [Compound 17], the pIC50 in the series with pSmad was 6.21.

Take `CC(C)c1cc(Oc2ccnc(Nc3cccc(C(N)=O)c3)c2)n(C2CCOCC2)n1` [Compound 19]: the pIC50 in the series on pSmad was 6.23.

For `Cc1cccc(-c2nn3c(c2-c2ccnc4ccc(C(N)=O)cc24)CCC3)n1` [Compound A, Galunisertib, reference compound], in series [1] (iv, injection (1 mg/kg)), the AUC(0-t) came out at 1.15 µM·h, the clearance was 37.3 mL/min/kg, the half-life was 0.477 h and the Vd came to 0.679 L/kg. In series [1], the bioavailability is 34.9%. Further, in series [1] (oral (1.5 mg/kg)), the AUC(0-t) was 0.586 µM·h, the Cmax was 712 nM, the Tmax is 0.25 h and the half-life was 1.45 h. Also, in series [2], the “% Inhibitory rate on Day 29” value was 66% and the “Mean tumor volume Day 29” value was 758.19 mm^3. Also, in series [3], the “Drug concentration in tumor tissue 1 hour after administration” value is 988 nmol/kg, the “Drug concentration in tumor tissue 12 hours after administration” value stood at 180 nmol/kg and the AUC was found to be 6.17 µM·h. In series [4] (iv, injection, 1 mg/kg), the AUC(0-t) is 0.814 µM·h, the clearance was found to be 56 mL/min/kg, the half-life was 0.45 h and the Vd stood at 1.31 L/kg. In series [4] (oral, 5 mg/kg), the AUC(0-t) is 1.37 µM·h, the peak level (Cmax) was 1840 nM, the Tmax turned out to be 0.25 h and the half-life is 1.1 h. The molecule further came in with a F in series [4] (oral 5 mg/kg vs injection 1 mg/kg) of 33.5%.

Regarding `NC(=O)c1cccc(Nc2cc(Oc3cc(C4CC4)nn3C3CCOCC3)ccn2)c1` [Trifluoroacetate of compound 18], the pIC50 in the series with pSmad is 6.55.

Values taken from US12325695B2, “5-(4-pyridyloxy)pyrazole compounds serving as TGF-βR1 kinase inhibitor” (JIANGSU AOSAIKANG PHARMACEUTICAL CO., LTD., priority 2019, dated 2025).
